Assay results from PubChem BioAssay (NCI).
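Assay format: 96-well plates, 48-hour exposure. The concentration for full growth arrest is given as TGI.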

Columns and labels:
Assay in all cases: NCI-60 cell line screen, 48 h
786-0 renal = test system: 786-0 renal
A498 renal = test system: A498 renal
A549 NSCLC = test system: A549 NSCLC
ACHN renal = test system: ACHN renal
BT-549 breast = test system: BT-549 breast
CAKI-1 renal = test system: CAKI-1 renal
CCRF-CEM leukemia = test system: CCRF-CEM leukemia
COLO 205 colon = test system: COLO 205 colon
DU-145 prostate = test system: DU-145 prostate
EKVX NSCLC = test system: EKVX NSCLC
HCC-2998 colon = test system: HCC-2998 colon
HCT-116 colon = test system: HCT-116 colon
HCT-15 colon = test system: HCT-15 colon
HL-60(TB) leukemia = test system: HL-60(TB) leukemia
HOP-62 NSCLC = test system: HOP-62 NSCLC
HOP-92 NSCLC = test system: HOP-92 NSCLC
HS 578T breast = test system: HS 578T breast
HT29 colon = test system: HT29 colon
IGROV1 ovarian = test system: IGROV1 ovarian
K-562 leukemia = test system: K-562 leukemia
KM12 colon = test system: KM12 colon
LOX IMVI melanoma = test system: LOX IMVI melanoma
M14 melanoma = test system: M14 melanoma
MALME-3M melanoma = test system: MALME-3M melanoma
MCF7 breast = test system: MCF7 breast
MDA-MB-231 breast = test system: MDA-MB-231 breast
MDA-MB-435 = test system: MDA-MB-435
MDA-N = test system: MDA-N
MOLT-4 leukemia = test system: MOLT-4 leukemia
NCI-H226 lung = test system: NCI-H226 lung
NCI-H23 lung = test system: NCI-H23 lung
NCI-H460 lung = test system: NCI-H460 lung
NCI-H522 lung = test system: NCI-H522 lung
NCI/ADR-RES ovarian = test system: NCI/ADR-RES ovarian
OVCAR-3 ovarian = test system: OVCAR-3 ovarian
OVCAR-4 ovarian = test system: OVCAR-4 ovarian
OVCAR-5 ovarian = test system: OVCAR-5 ovarian
OVCAR-8 ovarian = test system: OVCAR-8 ovarian
PC-3 prostate = test system: PC-3 prostate
RPMI-8226 leukemia = test system: RPMI-8226 leukemia
RXF 393 renal = test system: RXF 393 renal
SF-268 CNS = test system: SF-268 CNS
SF-295 CNS = test system: SF-295 CNS
SF-539 CNS = test system: SF-539 CNS
SK-MEL-2 melanoma = test system: SK-MEL-2 melanoma
SK-MEL-28 melanoma = test system: SK-MEL-28 melanoma
SK-MEL-5 melanoma = test system: SK-MEL-5 melanoma
SK-OV-3 ovarian = test system: SK-OV-3 ovarian
SN12C renal = test system: SN12C renal
SNB-19 CNS = test system: SNB-19 CNS
SNB-75 CNS = test system: SNB-75 CNS
SR leukemia = test system: SR leukemia
SW-620 colon = test system: SW-620 colon
T-47D breast = test system: T-47D breast
TK-10 renal = test system: TK-10 renal
U251 CNS = test system: U251 CNS
UACC-257 melanoma = test system: UACC-257 melanoma
UACC-62 melanoma = test system: UACC-62 melanoma
UO-31 renal = test system: UO-31 renal

## CCCCCC(=O)Nc1n[nH]nc1C#N
786-0 renal
  TGI: > 100000 nM
A498 renal
  TGI: > 100000 nM
A549 NSCLC
  TGI: > 100000 nM
ACHN renal
  TGI: > 100000 nM
BT-549 breast
  TGI: > 100000 nM
CAKI-1 renal
  TGI: > 100000 nM
CCRF-CEM leukemia
  TGI: > 100000 nM
COLO 205 colon
  TGI: > 100000 nM
DU-145 prostate
  TGI: > 100000 nM
EKVX NSCLC
  TGI: > 100000 nM
HCC-2998 colon
  TGI: > 100000 nM
HCT-116 colon
  TGI: > 100000 nM
HCT-15 colon
  TGI: > 100000 nM
HL-60(TB) leukemia
  TGI: > 100000 nM
HOP-62 NSCLC
  TGI: > 100000 nM
HOP-92 NSCLC
  TGI: > 100000 nM
HS 578T breast
  TGI: > 100000 nM
HT29 colon
  TGI: > 100000 nM
IGROV1 ovarian
  TGI: > 100000 nM
K-562 leukemia
  TGI: > 100000 nM
KM12 colon
  TGI: > 100000 nM
LOX IMVI melanoma
  TGI: > 100000 nM
M14 melanoma
  TGI: > 100000 nM
MALME-3M melanoma
  TGI: > 100000 nM
MCF7 breast
  TGI: > 100000 nM
MDA-MB-231 breast
  TGI: > 100000 nM
MDA-MB-435
  TGI: > 100000 nM
MDA-N
  TGI: > 100000 nM
MOLT-4 leukemia
  TGI: > 100000 nM
NCI-H226 lung
  TGI: > 100000 nM
NCI-H23 lung
  TGI: > 100000 nM
NCI-H460 lung
  TGI: > 100000 nM
NCI-H522 lung
  TGI: > 100000 nM
NCI/ADR-RES ovarian
  TGI: > 100000 nM
OVCAR-3 ovarian
  TGI: > 100000 nM
OVCAR-4 ovarian
  TGI: > 100000 nM
OVCAR-5 ovarian
  TGI: > 100000 nM
OVCAR-8 ovarian
  TGI: > 100000 nM
PC-3 prostate
  TGI: > 100000 nM
RPMI-8226 leukemia
  TGI: > 100000 nM
RXF 393 renal
  TGI: > 100000 nM
SF-268 CNS
  TGI: > 100000 nM
SF-295 CNS
  TGI: > 100000 nM
SF-539 CNS
  TGI: > 100000 nM
SK-MEL-2 melanoma
  TGI: > 100000 nM
SK-MEL-28 melanoma
  TGI: > 100000 nM
SK-MEL-5 melanoma
  TGI: > 100000 nM
SK-OV-3 ovarian
  TGI: > 100000 nM
SN12C renal
  TGI: > 100000 nM
SNB-19 CNS
  TGI: > 100000 nM
SNB-75 CNS
  TGI: > 100000 nM
SR leukemia
  TGI: > 100000 nM
SW-620 colon
  TGI: > 100000 nM
T-47D breast
  TGI: > 100000 nM
TK-10 renal
  TGI: > 100000 nM
U251 CNS
  TGI: > 100000 nM
UACC-257 melanoma
  TGI: > 100000 nM
UACC-62 melanoma
  TGI: > 100000 nM
UO-31 renal
  TGI: > 100000 nM

## CN(C)CCn1c(=O)c2ccc(NCCCN(C)CCCNc3ccc4c(=O)n(CCN(C)C)c(=O)n5c6ccccc6c(=O)c3c45)c3c(=O)c4ccccc4n(c1=O)c23
786-0 renal
  TGI: 1080 nM
A498 renal
  TGI: 2130 nM
A549 NSCLC
  TGI: 472 nM
ACHN renal
  TGI: 949 nM
BT-549 breast
  TGI: 1750 nM
CAKI-1 renal
  TGI: 426 nM
CCRF-CEM leukemia
  TGI: 81.9 nM
COLO 205 colon
  TGI: 376 nM
DU-145 prostate
  TGI: 533 nM
EKVX NSCLC
  TGI: 1100 nM
HCC-2998 colon
  TGI: 224 nM
HCT-116 colon
  TGI: 1030 nM
HCT-15 colon
  TGI: 421 nM
HL-60(TB) leukemia
  TGI: 1060 nM
HOP-62 NSCLC
  TGI: 838 nM
HOP-92 NSCLC
  TGI: 735 nM
HS 578T breast
  TGI: 1760 nM
HT29 colon
  TGI: 1060 nM
IGROV1 ovarian
  TGI: 194 nM
K-562 leukemia
  TGI: 1300 nM
KM12 colon
  TGI: 590 nM
LOX IMVI melanoma
  TGI: 164 nM
M14 melanoma
  TGI: 1900 nM
MALME-3M melanoma
  TGI: 2330 nM
MCF7 breast
  TGI: 904 nM
MDA-MB-231 breast
  TGI: 540 nM
MDA-MB-435
  TGI: 127 nM
MDA-N
  TGI: 1600 nM
MOLT-4 leukemia
  TGI: 85.3 nM
NCI-H226 lung
  TGI: 535 nM
NCI-H23 lung
  TGI: 546 nM
NCI-H460 lung
  TGI: 139 nM
NCI-H522 lung
  TGI: 517 nM
NCI/ADR-RES ovarian
  TGI: 1480 nM
OVCAR-3 ovarian
  TGI: 1210 nM
OVCAR-5 ovarian
  TGI: 3560 nM
OVCAR-8 ovarian
  TGI: 490 nM
PC-3 prostate
  TGI: 654 nM
RPMI-8226 leukemia
  TGI: 231 nM
RXF 393 renal
  TGI: 362 nM
SF-268 CNS
  TGI: 2110 nM
SF-295 CNS
  TGI: 1540 nM
SF-539 CNS
  TGI: 1780 nM
SK-MEL-2 melanoma
  TGI: 2440 nM
SK-MEL-28 melanoma
  TGI: 1940 nM
SK-MEL-5 melanoma
  TGI: 1170 nM
SK-OV-3 ovarian
  TGI: 2430 nM
SN12C renal
  TGI: 1180 nM
SNB-19 CNS
  TGI: 1330 nM
SNB-75 CNS
  TGI: 334 nM
SR leukemia
  TGI: 504 nM
SW-620 colon
  TGI: 231 nM
T-47D breast
  TGI: 8330 nM
TK-10 renal
  TGI: 1480 nM
U251 CNS
  TGI: 1060 nM
UACC-257 melanoma
  TGI: 1820 nM
UACC-62 melanoma
  TGI: 1580 nM
UO-31 renal
  TGI: 530 nM
